The source of these data is patent US7374870B2, “Systems and methods for removing viral agents from blood” (Fenwal, Inc., priority 1996, dated 2008).

Molecules are shown by their SMILES.

The test system of experiment [1] is viruses. In words: Viral inactivation by the photoreduction byproduct. The note with it: byproduct formed by exposing methylene blue to visible ambient light.
Experiment [2] concerns encephalomyocarditis virus (EMC). The note with it: cited from earlier work.

As to `CN(C)c1ccc2c(c1)Sc1cc(N(C)C)ccc1N2` [leucomethylene blue], the “effectiveness in inactivating viruses” value in experiment [1] was “not effective in inactivating viruses”. As to `CN(C)c1ccc2nc3ccc(=[N+](C)C)cc-3sc2c1` [methylene blue], the “virucidal action on non-enveloped EMC” value in experiment [2] was “demonstrated a resistance to the virucidal action”.
